Data reported in US9944749B2, “Polycarbonates” (Valspar Sourcing, Inc., priority 2012, dated 2018).
Like-named read-outs stand apart in the source and are kept apart here.

Key:
human estrogen receptor = biological target: T1, human estrogen receptor (Homo sapiens, UniProt P03372); test: suitable in vitro assay whose results are directly correlated to the MCF-7 cell proliferation assay; type: cell-based; conditions: in vitro assay correlated to MCF-7 assay through common reference compounds
T1 sequence (P03372 1-595): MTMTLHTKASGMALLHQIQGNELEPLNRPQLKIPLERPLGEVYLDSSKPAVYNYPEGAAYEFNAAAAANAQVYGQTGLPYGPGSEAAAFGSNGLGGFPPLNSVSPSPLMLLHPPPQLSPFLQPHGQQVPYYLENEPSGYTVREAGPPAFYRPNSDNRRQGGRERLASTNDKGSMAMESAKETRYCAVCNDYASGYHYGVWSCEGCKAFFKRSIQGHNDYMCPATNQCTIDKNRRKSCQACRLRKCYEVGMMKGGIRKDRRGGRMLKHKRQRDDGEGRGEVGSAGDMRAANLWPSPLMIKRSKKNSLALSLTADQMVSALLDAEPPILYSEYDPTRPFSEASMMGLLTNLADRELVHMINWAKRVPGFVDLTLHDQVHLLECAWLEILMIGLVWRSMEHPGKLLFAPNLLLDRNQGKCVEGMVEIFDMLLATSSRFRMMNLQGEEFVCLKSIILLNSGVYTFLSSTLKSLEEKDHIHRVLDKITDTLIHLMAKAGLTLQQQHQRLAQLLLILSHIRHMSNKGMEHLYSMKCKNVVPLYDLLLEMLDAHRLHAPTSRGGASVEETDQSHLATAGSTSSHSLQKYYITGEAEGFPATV

MCF-7, clone WS8, cells = test: MCF-7 cell proliferation assay of estrogenic activity; type: cell-based, human

Cc1cc(Cc2cc(C)cc(C(C)(C)C)c2O)c(O)c(C(C)(C)C)c1 [Structure 9] was tested. Which estrogenic activity (human estrogen receptor) did it give?
The estrogenic activity was “do not exhibit appreciable estrogenic activity”.

With Oc1ccc(Cc2ccc(O)cc2)cc1 [Bisphenol F] as the molecule, how does the “Log RPE” value (MCF-7, clone WS8, cells) read?
Its value is −2.

CC(C)(C)c1cc(O)c(C(C)(C)C)cc1O [Structure 12, 2,5-di-t-butylhydroquinone] was tested. Which estrogenic activity (human estrogen receptor) did it give?
Its estrogenic activity is “do not exhibit appreciable estrogenic activity”.

For CC(C)(C)c1cc(Cc2cc(C(C)(C)C)c(O)c(C(C)(C)C)c2)cc(C(C)(C)C)c1O [Structure 8, 4,4′-methylenebis(2,6-di-t-butylphenol)], which estrogenic activity (human estrogen receptor) is on record?
The estrogenic activity was “do not exhibit appreciable estrogenic activity”.

Cc1cc(Cc2cc(C)c(O)c(C)c2)cc(C)c1O [Structure 6, 4,4′-methylenebis(2,6-dimethylphenol)] was tested. Which estrogenic activity (human estrogen receptor) did it give?
The estrogenic activity was “do not exhibit appreciable estrogenic activity”.

Which “Log RPE” value (MCF-7, clone WS8, cells; logarithmic (base 10) Relative Proliferative Effect relative to 17-beta estradiol, cell proliferation measured as total DNA, values 'expected or measured') does the source give for C[C@]12CC[C@@H]3c4ccc(O)cc4CC[C@H]3[C@@H]1CC[C@@H]2O [17β-estradiol] here?
The value was 2.00.

How did the estrogenic activity (human estrogen receptor) turn out when CCCC(c1cc(C(C)(C)C)c(O)cc1C)c1cc(C(C)(C)C)c(O)cc1C [Structure 7, 4,4′-butylidenebis(2-t-butyl-5-methylphenol)] was run?
The estrogenic activity was “do not exhibit appreciable estrogenic activity”.
